Residues, ends and D or L forms follow the SMILES beside them. *: point of attachment. Cbz = O=C(OCc1ccccc1)*
Columns and labels:
Type in all cases: in vivo, mouse
diet-induced obese mice [1] = assay: ICV Claramine for 10 consecutive days in 12-week high fat fed mice; settings: ICV 1 and 10 μg/animal/day
Protocol: (§1) FIG. 23. CNS administration of PTP1B inhibitor (Claramine) dose dependently attenuates body weight, adiposity and food intake without regulating energy expenditure in diet-induced obese mice. […] Data were collected into 5 min time bins and are presented as percentage of total behavior. Crossover graphs indicating the point of transition from eating to resting and the dashed line represents the time bin in which groups spent an equivalent amount of time eating and resting and is represented as f) time of cross over.

diet-induced obese mice [2] = assay: Behavioral satiety sequence after ICV Claramine in overnight fasted high fat fed mice; settings: ICV 1 and 10 μg/animal
Protocol: as §1

[3] = tested on: 8-10-week C57BL/6 male mice; assay: Intranasal RU486 or Claramine for 10 consecutive days in 8-10-week C57BL/6 male mice; settings: RU486 1, 5, 10 or Claramine 1, 10 and 20 μg/animal/day
Protocol: 8-10-week C57BL/6 male mice were mice received glucocorticoid antagonist (RU486: 1, 5, 10 μg/animal/day; intranasal; 12 μl total volume) and/or PTP1B inhibitor (Claramine: 1, 10 and 20 μg/animal/day, intranasal; 12 μl total volume) for 10 consecutive days and effects on a, f) body weight, b, g) food intake, c, h) adiposity (EchoMRI and fad pad weight) was determined.

[4] = tested on: ARC PI3K/AKT signaling (p-AKT); assay: Insulin-induced ARC p-AKT (Ser-473) immunohistochemistry in fed or fasted mice; settings: insulin 0.85 mU/g i.p., 15 min
diet-induced obese mice [5] = assay: ICV RU486 for 10 consecutive days in 12-week high fat fed mice; settings: ICV 1 μg/animal
Protocol: FIG. 16. […] 12 week high fat fed C57BL/6 male mice were mice were sham or bi-laterally denervated (6-ODHA) to prevent WAT browning and then administered the glucocorticoid antagonist RU486 intracerebroventricularly (ICV; 1 μg/animal), twice daily (9 am & […]) for 10 consecutive days. Effects on body weight and adiposity (EchoMRI and fad pad weight) were determined. WAT browning was assessed by gross morphology.
FIG. 17. A glucocorticoid antagonist promotes WAT browning and increases energy expenditure without any obvious adverse behavioral effects. […] Effects on energy expenditure (indirect calorimetry) and stereotypical behaviors were determined using the Promethion metabolic cage system.
FIG. 22. […] 12-week high fat fed C57BL/6 male mice received glucocorticoid antagonist (RU486: 0.1, 1 and 2 μg/animal/day, ICV) for 10 consecutive days and a) body weights, b) food intake, c) adiposity (EchoMRI and fad pad weight), d) energy expenditure were determined.
Insulin and glucose tolerance tests and blood glucose and plasma insulin were measured as described previously (Dodd et al., 2015 as above; Loh et al., 2009 Cell Metab 10, 260-272). Plasma corticosterone was measured by ELISA (Arbor Assays). […]
Effects on body weight and adiposity (EchoMRI and fat pad weight) were determined. […]
Effects on energy expenditure and stereotypical behaviours were determined using the Promethion metabolic cages system.

TCPTP protein in the MBH = assay: ICV MG132 in fasted (24 h) mice re-fed 4 h; MBH immunoblotting for TCPTP; settings: ICV 2 μl 50 μM, 4 h re-feeding
Protocol: The alterations in hypothalamic TCPTP in fed and fasted mice might be a specific response to nutritional signals. To explore this, experiments were performed to determined when the hypothalamic TCPTP levels returned to the pre-fasted state, when 24 h fasted mice were re-fed for 4 h (FIG. 1a). Hypothalamic TCPTP protein, as assessed by immunoblotting MBH homogenates (FIG. 1c), or Ptpn2 expression, as assessed by real time PCR (FIG. 1d), declined to pre-fasted levels in re-fed mice. The decline in TCPTP occurred throughout the ARC (FIG. 8c). The decline in TCPTP was accompanied by increased IR and AKT phosphorylation (FIG. 1e), consistent with the potential enhancement of insulin sensitivity. Since the half-life for TCPTP protein is roughly 16 h (Bukczynska et al., 2004), we reasoned that the decline in TCPTP might reflect increased degradation. The proteasome can influence hypothalamic protein abundance in response to feeding (Sasaki et al., 2010). To test its contribution to TCPTP degradation in re-fed mice, we administered fasted (24 h) mice the proteasome inhibitor MG132 intracerebroventricularly (ICV) and assessed the influence on TCPTP protein in the MBH after 4 h of re-feeding.

PTP1B levels = assay: ICV MG132 in fasted (24 h) mice re-fed 4 h; MBH immunoblotting for PTP1B; settings: ICV 2 μl 50 μM, 4 h re-feeding
[6] = tested on: 20-week high fat fed C57BL/6 male mice; assay: Intra-ARC infusion of TCPTP inhibitor in 20-week high fat fed mice switched to chow diet; settings: intra-ARC 0.5 nmol/day at 0.25 ul/h, mice placed on chow diet (9% fat)
Protocol: FIG. 18. […] 2-weeks post AAV injection mice were placed on chow diet (9% fat) and weekly body weight was monitored. b) 20-week high fat fed (23% fat) C57BL/6 male mice were implanted with bilateral intraARC cannula connected to Alzet osmotic minipumps (Alzet, 1002) and infused with vehicle or TCPTP inhibitor (compound 8 as described herein, 0.5 nmol/day at a rate of 0.25 ul/h). Mice were placed on chow diet (9% fat) and daily body weight was monitored.
2-weeks post AAV injection mice were placed on chow diet (9% fat) and weekly body weight was monitored. b) 20-week high fat fed (23% fat) C57BL/6 male mice were implanted with bilateral intra-ARC cannula connected to Alzet osmotic minipumps (Alzet, 1002) and infused with vehicle or TCPTP inhibitor (compound 8, 0.5 nmol/day at a rate of 0.25 ul/h). Mice were placed on chow diet (9% fat) and daily body weight was monitored.

[7] = tested on: AgRP neurons (hM4Di DREADD); assay: CNO in Agrp-Ires-Cre; Npy-hrGFP mice with rAAV-hM4Di-mCherry (DREADD) in the ARC; settings: CNO 1.5 mg/kg/day i.p., 14 days
Description: FIG. 3. TCPTP deletion in AgRP neurons or AgRP neuronal inhibition promotes WAT browning and energy expenditure. a) Body weights, b) body composition, c) energy expenditure, d) daily food intake and e) BAT Ucp-1 gene expression in 18-week-old AgRP-TC and Ptpn2^fl/fl male mice. Inguinal WAT (ingWAT) was extracted from Ptpn2^fl/fl and AgRP-TC male mice and processed for f) histology (hematoxylin and eosin: H&E) and immunohistochemistry, g) quantitative PCR and h) immunoblotting. i) Ptpn2^fl/fl and AgRP-TC and Ptpn2^fl/fl male mice were subjected to ^18F-fluoro-2-deoxy-D-glucose (^18F-FDG) positron emission tomography (PET)-computed tomography (CT). Representative images and ingWAT ^18F-FDG standard uptake values (SUV) and normalised uptake per tissue volume are shown. Ptpn2^fl/fl and AgRP-TC male mice ingWAT depots were bilaterally sham-operated or denervated with 6-ODHA and j) weekly body weights recorded and k) energy expenditure measured. l) Ptpn2^fl/fl, AgRP-TC or AgRP-TC-IR male mice were fasted overnight and administered (intraperitoneal) insulin (0.85 mU/g, 15 min) and brains extracted for ARC p-AKT immunohistochemistry. m) Energy expenditure, n) body weights and o) ingWAT weights in 14-week-old Ptpn2^fl/fl, AgRP-TC or AgRP-TC-IR male mice. p-r) IngWAT and BAT were extracted from Ptpn2^fl/fl, AgRP-TC or AgRP-TC-IR male mice for gene expression analyses or histology/immunohistochemistry. s-t) 10-week-old Npy-hrGFP; Agrp-Ires-Cre mice were bilaterally injected with rAAV-hM4Di-mCherry into the ARC. […] Representative and quantified results (means±SEM) are shown for the indicated number of mice. * for significance between Ptpn2^fl/fl and AgRP-TC mice; # for significance between treated AgRP-TC or AgRP verses AgRP-TC-IR mice.
FIG. 10. […] Representative and quantified results (means±SEM) are shown for the indicated number of mice. […]

[8] = tested on: hypothalamic TCPTP (Ptpn2) expression; assay: ICV ghrelin, UDP or dexamethasone (plus or minus RU486) in re-fed mice; hypothalamic TCPTP immunohistochemistry and Ptpn2 real time PCR; settings: for TCPTP protein levels (immunohistochemistry): ICV twice over 4 h in fasted and re-fed (4 h) mice
Protocol: Paraformaldehyde-fixed brains were extracted and processed for TCPTP immunohistochemistry. e) 8-week-old fed or 24 h fasted C57BL/6 male mice were administered (intraperitoneal) saline, or leptin (0.5 μg/g body weight, 45 min) and paraformaldehyde-fixed brains extracted for immunohistochemistry monitoring for STAT3 Y705 phosphorylation (p-STAT3) in the central-caudal ARC. f) Tissues from 8-week-old AgRP-TC mice were screened for the presence of the recombined Ptpn2 allele (ΔPtpn2) by PCR (Wiede et al., 2011). g) 8-week-old Ptpn2^fl/fl; Npy-hrGFP or AgRP-TC; Npy-hrGFP mice were perfused with paraformaldehyde and brains extracted and processed for immunohistochemistry monitoring for TCPTP in GFP-positive AgRP/NPY neurons in the central-caudal ARC. Yellow arrows depict TCPTP positive NPY cells, blue arrows depict TCPTP negative NPY cells. h) Brains from 8-week-old fed or 24 h fasted Ptpn2^fl/fl; Npy-hrGFP or AgRP-TC; Npy-hrGFP male mice were paraformaldehyde-fixed and processed for ARC p-AKT immunohistochemistry. i-j) 8-week-old Ptpn2^fl/fl or AgRP-TC male mice were fasted and injected (intraperitoneal) with saline, insulin (0.85 mU/g) or leptin (1 μg/g body weight) and hypothalami extracted 2 h later for quantitative PCR. k) 8-week-old Ptpn2^fl/fl; Npy-hrGFP or AgRP-TC; Npy-hrGFP male mice were fasted overnight and administered vehicle PBS or leptin (0.5 μg/g body weight, intraperitoneal) for 45 min and paraformaldehyde-fixed brains extracted and processed for immunofluorescence microscopy monitoring for p-STAT3 and GFP. l) Plasma insulin levels in 8-10-week-old fed or food restricted (just prior to lights out, 6:30 μm) C57BL/6 male mice.
Under 2% (v/v) isoflurane in 1 l/min oxygen 8-week-old AgRP-TC, Ptpn2^fl/fl or C57BL/6 mice were implanted stereotaxically with guide cannulas into the right lateral ventricle (0.2 mm posterior, 1.0 mm lateral from bregma). […] Mice received a second injection 2 h later and after a further 2 h mice were perfused with paraformaldehyde for immunohistochemical analysis, or hypothalami extracted for quantitative real time PCR.

CC(C)CCC[C@@H](C)[C@H]1CC[C@H]2[C@@H]3C[C@@H](NCCCNCCCCNCCCN)C4C[C@@H](O)CC[C@]4(C)[C@H]3CC[C@]12C (stereo partly drawn) [Claramine, (3β3,6β3)-6-[[3-[[4-[(3-Aminopropyl)amino]butyl]amino]propyl]amino]-cholestan-3-ol]
adiposity (EchoMRI and fad pad weight) (diet-induced obese mice [1]): dose dependent attenuation | body weights (diet-induced obese mice [1]): dose dependent attenuation | food intake (diet-induced obese mice [1]): dose dependent attenuation | adverse side effects as cause of reduced food intake (diet-induced obese mice [2]): not by adverse side effects such as sedation or nausea | behavioral satiety sequence (diet-induced obese mice [2]; overnight fasted, presented with food): dose dependent shift | adaptive thermogenesis [3]: dose dependent effect | adiposity [3]: dose dependent effect | body weight [3]: dose dependent effect | food intake [3]: dose dependent effect

insulin: human insulin (SIGMA)
ARC p-AKT in response to insulin ([4]; 24 h fasted C57BL6 mice): only modestly increased | induction of ARC p-AKT in response to insulin ([4]; fed C57BL6 mice): 3-4 fold

CC#C[C@]1(O)CC[C@H]2[C@@H]3CCC4=CC(=O)CCC4=C3[C@@H](c3ccc(N(C)C)cc3)C[C@@]21C [RU486, 17-beta-hydroxy-11-beta-(4-dimethyl-aminophenyl)-17-alpha(1-propynyl)-estra-4,9-dien-3-one]
adverse behaviours (diet-induced obese mice [5]): not accompanied by adverse behaviours such as inactivity, hyperactivity or sedation

CC(C)C[C@@H](C=O)NC(=O)[C@H](CC(C)C)NC(=O)[C@H](CC(C)C)NC(=O)OCc1ccccc1 [MG132] (Cbz-Leu-Leu-Leu-aldehyde)
feeding-induced degradation of TCPTP (TCPTP protein in the MBH): completely prevented | PTP1B levels (PTP1B levels): without affecting

CCc1ccc(C(=O)NCCCCC(NC(=O)C(Cc2ccc(C(F)(F)P(=O)(O)O)cc2)NC(=O)C(Cc2ccccc2)NC(=O)COC2CC(C)CCC2C(C)C)C(N)=O)cc1 (stereo not drawn) [compound 8]
diet-induced weight loss (daily body weight) [6]: enhances diet-induced weight loss

C[N+]1([O-])CCN(C2=Nc3cc(Cl)ccc3Nc3ccccc32)CC1 [CNO, clozapine-N-oxide]
body weights [7]: decreased | food intake [7]: decreased | WAT browning ([7]; sham-operated vs 6-OHDA denervated inguinal fat pads): marked WAT browning in the sham-operated, but not in the contralateral 6-OHDA denervated inguinal fat pads

O=c1ccn([C@@H]2O[C@H](COP(=O)(O)OP(=O)(O)O)[C@@H](O)[C@H]2O)c(=O)[nH]1 [UDP, uridine 5′-diphosphate]
TCPTP protein levels (immunohistochemistry) [8]: Neither ghrelin nor UDP overtly altered

ghrelin
TCPTP protein levels (immunohistochemistry) [8]: Neither ghrelin nor UDP overtly altered | increase in Ptpn2 message ([8]; ICV twice over 4 h in re-fed mice, real time PCR): ~3 fold
